Measured values published in patent US12617795B2, “Substituted 6,7-dihydro-5H-pyrrolo[3,4-d]pyrimidines, 5,7-dihydrofuro[3,4-d]pyrimidines, and pyrido[2,3-d]pyrimidines as KCC2 modulators” (Astrazeneca AB, priority 2020, dated 2026).

Biological target: T1, KCC2 (Homo sapiens, UniProt Q9H2X9)
T1 construct: expressed in transfected cells; host or cells: HEK293 cells electroporated (Maxcyte STX) with the pcDNA3.1 KCC2 plasmid
T1 sequence (Q9H2X9 1-1139): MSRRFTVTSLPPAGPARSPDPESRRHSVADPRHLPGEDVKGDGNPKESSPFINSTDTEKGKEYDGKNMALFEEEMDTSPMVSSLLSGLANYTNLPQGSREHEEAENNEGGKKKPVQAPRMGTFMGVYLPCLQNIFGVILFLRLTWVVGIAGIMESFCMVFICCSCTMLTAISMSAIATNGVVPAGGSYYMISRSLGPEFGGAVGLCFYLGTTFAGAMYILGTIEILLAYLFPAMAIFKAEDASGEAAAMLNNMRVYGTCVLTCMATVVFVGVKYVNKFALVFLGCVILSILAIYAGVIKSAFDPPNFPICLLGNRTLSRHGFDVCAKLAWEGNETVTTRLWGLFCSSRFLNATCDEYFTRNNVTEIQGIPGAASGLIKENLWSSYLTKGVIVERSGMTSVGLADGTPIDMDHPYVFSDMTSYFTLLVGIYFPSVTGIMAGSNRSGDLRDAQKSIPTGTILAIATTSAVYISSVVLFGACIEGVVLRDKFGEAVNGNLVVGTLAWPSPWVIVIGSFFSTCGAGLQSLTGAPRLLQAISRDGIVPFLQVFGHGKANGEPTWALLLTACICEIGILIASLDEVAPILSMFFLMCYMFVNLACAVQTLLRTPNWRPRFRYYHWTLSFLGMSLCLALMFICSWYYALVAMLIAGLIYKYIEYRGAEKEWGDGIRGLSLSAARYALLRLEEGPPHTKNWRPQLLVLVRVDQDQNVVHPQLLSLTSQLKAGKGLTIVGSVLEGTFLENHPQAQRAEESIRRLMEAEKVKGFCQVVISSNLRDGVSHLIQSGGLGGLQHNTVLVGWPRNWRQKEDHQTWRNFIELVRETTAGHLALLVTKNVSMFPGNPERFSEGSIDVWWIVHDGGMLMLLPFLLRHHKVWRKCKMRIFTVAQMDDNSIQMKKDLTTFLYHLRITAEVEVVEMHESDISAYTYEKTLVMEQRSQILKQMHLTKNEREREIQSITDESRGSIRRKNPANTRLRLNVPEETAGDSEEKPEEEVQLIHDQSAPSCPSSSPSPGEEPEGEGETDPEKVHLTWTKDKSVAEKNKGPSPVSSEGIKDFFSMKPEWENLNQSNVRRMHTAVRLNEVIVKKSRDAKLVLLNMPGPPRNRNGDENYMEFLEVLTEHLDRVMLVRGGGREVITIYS
Assay: KCC2 thallium transport FLIPR-based assay (Tl+ influx in HEK293 cells expressing KCC2)
Format: cell-based
Settings: 90 min compound incubation at RT, thallium flux at 120 s used to determine EC50
Method: A thallium transport FLIPR-based assay was used to measure the ability of compounds to activate KCC2. KCC2 activity is assessed by measuring KCC2-dependent Tl^+ influx in a KCC2-expressing cell. The assay protocol was based on those described by Delpire et al (Proc Natl Acad Sci USA. 2009 Mar. 31; 106(13): 5383-5388) and Zhang et al (Journal of Biomolecular Screening 15(2): 2010).
KCC2 was synthesised and codon optimised by GeneArt based on the Uniprot sequence Q9H2X9. The final sequence was subcloned into pcDNA3.1.
HEK293 cells were grown in 10 layer cell stacks at 37° C., 5% CO2, in DMEM, 10% fetal calf serum and 2 mM Glutamine. The cells were detached by removing the media and washing the cell stack with 100 ml of PBS. The PBS was removed and 100 ml of 1× TrypLE was added and the cell stack returned to 37° C. for 5 min. The detached cells were then counted in a Vi Cell counter and spun for 10 min at 1250 rpm in a Sorval Legend centrifuge. The cells were diluted down in Maxcyte electroporation buffer at 4× the final concentration and spun as before. The cell pellet was resuspended at 1×10^8/cells per ml and electroporated in a Maxcyte Cl 2.2 bag on a Maxcyte STX machine via the HEK293 programme with 200 ug/ml of plasmid DNA. The cells were then allowed to recover for 30 min before adding to 500 ml of PBS and then counted again on the Vi Cell. The cells were then frozen down in planer controlled rate freeze in 90% complete media, 10% DMSO.
All reagents were dispensed using a Mulitdrop Combi unless stated otherwise. All FluXOR Invitrogen propriety buffer compositions are mentioned in tables below.
HEK293 KCC2 cells were harvested at a density of 3.33×10^5 cells/mL in complete media (DMEM, Sigma, D6546, 10% fetal calf serum and 1% Glutamax) and 30 μL per well seeded into 384-well PDL coated black-clear plates (Corning, 354663). Leave cells at RT for 20 mins to settle before incubating for 48 h at 37° C., 5% CO2. Following incubation, perform three wash steps in HBSS (Sigma, H6648) using a Biotek cell washer with the final aspiration leaving 20 μL HBSS residual volume in each well. A further 20 μL per well of thallium loading dye is then added (1 h, RT, protect from light). 5 μL of test compounds (100 μM top concentration, 1:2 dilutions, 12 point curve) were added using the FLIPR TETRA and incubated at RT for 90 min in the dark. Following compound incubation, the thallium flux response is read on FLIPR TETRA (ex. 515-575 nm) which is initiated by FLIRR TETRA dispensing 5 μL stimulus buffer into each well. Recordings are measured every 1 second for 120 seconds. Thallium flux at 120 s used to determine EC50.
Compound buffer: Assay buffer with 1 μL of bumetanide per 10 ml.

Row | SMILES | EC50 [µM]
1 | CC(C)c1ccc(Nc2nc(-c3ccncc3)nc3c2CN(C(C)C)C3=O)cc1 [Example 40, 6-isopropyl-4-((4-isopropylphenyl)amino)-2-(pyridin-4-yl)-5,6-dihydro-7H-pyrrolo[3,4-d]pyrimidin-7-one] | 6.36
2 | CC(C)C1CN(c2nc(Nc3ccc(C4CCCCC4)cc3)c3c(n2)C(=O)N(C(C)C)C3)CCO1 (stereo not shown) [Example 18, 4-[(4-cyclohexylphenyl)amino]-6-(propan-2-yl)-2-[2-(propan-2-yl)morpholin-4-yl]-5,6-dihydro-7H-pyrrolo[3,4-d]pyrimidin-7-one] | 1.39
3 | CC(C)N1Cc2c(Nc3ccc(C4CCCCC4)cc3)nc(N3CCO[C@H](CNC(=O)OC(C)(C)C)C3)nc2C1=O [Example 17, tert-butyl {[(2R)-4-{4-[(4-cyclohexylphenyl)amino]-7-oxo-6-(propan-2-yl)-6,7-dihydro-5H-pyrrolo[3,4-d]pyrimidin-2-yl}morpholin-2-yl]methyl}carbamate] | 1.09
4 | CC(C)N1Cc2c(Nc3ccc(CC(F)(F)F)cc3)nc(N3CCO[C@H](C)C3)nc2C1=O [Example 65, 2-[(2R)-2-methylmorpholin-4-yl]-6-(propan-2-yl)-4-{[4-(2,2,2-trifluoroethyl)phenyl]amino}-5,6-dihydro-7H-pyrrolo[3,4-d]pyrimidin-7-one] | 7.65
5 | CC(C)N1Cc2c(Nc3ccc(C4CCC4)cc3)nc(N3CCOCC3)nc2C1=O [Example 63, 4-[(4-cyclobutylphenyl)amino]-2-(morpholin-4-yl)-6-(propan-2-yl)-5,6-dihydro-7H-pyrrolo[3,4-d]pyrimidin-7-one] | 5.71
6 | CC(C)c1ccc(Nc2nc(N3CCOC(C4CC4)C3)nc3c2CN(C(C)C)C3=O)cc1 (stereo not shown) [Example 10, 2-(2-cyclopropylmorpholin-4-yl)-6-(propan-2-yl)-4-{[4-(propan-2-yl)phenyl]amino}-5,6-dihydro-7H-pyrrolo[3,4-d]pyrimidin-7-one] | 2.99
7 | CC(C)c1ccc(Nc2nc(N3CCO[C@@H](C)C3)nc3c2CN(C(C)C)C3=O)cc1 [Example 6, 2-[(2S)-2-methylmorpholin-4-yl]-6-(propan-2-yl)-4-{[4-(propan-2-yl)phenyl]amino}-5,6-dihydro-7H-pyrrolo[3,4-d]pyrimidin-7-one] | 6.82
8 | C#CCCC1(CCOc2ccc(-c3ccc(Nc4nc(N5CCOC(C6CC6)C5)nc5c4CN(C(C)C)C5=O)cc3)cc2)N=N1 (stereo not shown) [Example 54, 4-[(4′-{2-[3-(but-3-yn-1-yl)-3H-diaziren-3-yl]ethoxy}[1,1′-biphenyl]-4-yl)amino]-2-(2-cyclopropyl-morpholin-4-yl)-6-(propan-2-yl)-5,6-dihydro-7H-pyrrolo[3,4-d]pyrimidin-7-one] | 0.253

Now from value to molecule:

Row | EC50 [µM] | SMILES
9 | 3.99 | C[C@@H]1CN(c2nc(Nc3ccc(C4CCCCC4)cc3)c3cc(C(=O)O)cnc3n2)CCO1 [Example 103, (R)-4-((4-cyclohexylphenyl)amino)-2-(2-methylmorpholino)pyrido[2,3-d]pyrimidine-6-carboxylic acid]
10 | 2.73 | C[C@@H]1CN(c2nc(Nc3ccc(C4CCCCC4)cc3)c3c(n2)C(=O)N(CCN(C)C)C3)CCO1 [Example 73, 4-[(4-cyclohexylphenyl)amino]-6-[2-(dimethylamino)ethyl]-2-[(2R)-2-methylmorpholin-4-yl]-5,6-dihydro-7H-pyrrolo[3,4-d]pyrimidin-7-one]
11 | 8.18 | CC(C)N1Cc2c(Nc3ccc(C(C)(C)C)cc3)nc(N3CCOCC3)nc2C1=O [Example 87, 4-[(4-tert-butylphenyl)amino]-2-(morpholin-4-yl)-6-(propan-2-yl)-5,6-dihydro-7H-pyrrolo[3,4-d]pyrimidin-7-one]
12 | 6.3 | CCc1cnc2nc(N3CCO[C@H](C)C3)nc(Nc3ccc(C4CCCCC4)cc3)c2c1 [Example 100, (R)—N-(4-cyclohexylphenyl)-6-ethyl-2-(2-methylmorpholino) pyrido[2,3-d]pyrimidin-4-amine]
13 | 6.89 | C#CCN1Cc2c(Nc3ccc(C(C)C)cc3)nc(N3CCOCC3)nc2C1=O [Example 76, 2-(morpholin-4-yl)-4-{[4-(propan-2-yl)phenyl]amino}-6-(prop-2-yn-1-yl)-5,6-dihydro-7H-pyrrolo[3,4-d]pyrimidin-7-one]
